This is an account of results in patent US6436423B1, “Product and method for improving avian health” (Arkion Life Sciences, priority 1998, dated 2002).

Assay [1] relates to Ross x Hubbard HyY broiler chicks. Briefly: Example 1: efficacy of AQ applied to the litter used in broiler chicken houses (42 day performance). The assay is classed as in vivo. Particulars: AQ applied to the litter at the 1.0× dose; full dose and half dose of coccidiostat in the feed. An excerpt: A total of 3456 one-day-old straight run Ross x Hubbard HyY broiler chicks was used in the experiment. There were 6 treatments with 8 replicates per treatment and 72 birds per replicate. The individual pen was the experimental unit. The experimental treatments used follows:
1. Negative Control =No coccidiostat or growth promoting antibiotics and no litter treatment
2. Positive Control=BioCox® (full dose)+BMD®+3-Nitro and no litter treatment
3. BioCox® (full dose)+BMD®+3-Nitro+0.5× litter treatment*
4. BioCox® (full dose)+BMD®+3-Nitro+1.0× AQ litter treatment**
5. BioCox® (half dose)+BMD®+3-Nitro+0.5× AQ litter treatment
6. BioCox® (half dose)+BMD®+3-Nitro+1.0× AQ litter treatment
*0.5× Solution of AQ−⅛ Gallon/44,000sqft
**1.0× Solution of AQ−¼ Gallon/44,000sqfi

The test system is the same in assay [2]. Briefly: Example 2: efficacy of AQ applied to the litter used in broiler chicken houses, dose titration (42 day performance). It is filed as in vivo. An excerpt:
The term “weight adjusted feed efficiency” is based upon a feed efficiency corrected to a standard weight called the “weight adjusted feed efficiency” (WAFE). Feed efficiency can be adjusted to a standard weight of 2.00 kg. For every 31.78 grams difference in weight, the feed efficiency can be adjusted by 0.01. For example:
(§1) A total of 6912 one-day-old straight run Ross x Hubbard HyY broiler chicks was used in the experiment. There were 12 treatments with 8 replicates per treatment and 72 birds per replicate. The individual pen was the experimental unit. The experimental treatments used were as follows:
1. Negative Control—No coccidiostat or growth promoting antibiotics—No litter treatment
4. No litter treatment—BioCox (half dose)
3. 4× AQ litter treatment—No feed additives
4. 4× AQ litter treatment—BioCox (half dose)
5. 10.0× AQ litter treatment—No feed additives
6. 4.0× AQ litter treatment+BioCox (low dose)+BMD+3-Nitro
7. 4.0× AQ litter treatment BioCox (low dose)+BMD+3-Nitro
8. 10× AQ litter treatment−BioCox (half dose)
9. Positive Control BioCox (full dose)+BMD+3-Nitro
10. 4× AQ litter treatment−BioCox (full dose)+BMD+3-Nitro
11. 10× AQ litter treatment−BioCox (half dose)+BMD+3-Nitro
12. 10× AQ litter treatment−BioCox (full dose)+BMD+3-Nitro.
(§2) 4× Solution of AQ−1 Gallon/44,000sqft×4.2 ml per 48sqft (one pen)

Assay [3] concerns coccidia. The experiment in a line: Example 2: intestinal lesion scores (intestinal coccidia score). It is filed as in vivo, broiler chicken. Particulars: 14 day data; 10× or 4× AQ dose on litter combined with typically used poultry diets. On the procedure:
as §1, §2
This means that the lesion score difference was greater than 1 unit (scoring range of 0-4).

[4] abbreviates: 10× AQ dose on litter combined with typically used poultry diets.
Setting [5] is: 10× AQ dose on litter, diet contained no coccidiostat or antibiotic feed additive.

Turning to `O=C1c2ccccc2C(=O)c2ccccc21` [AQ, anthraquinone], the “effect on feed efficiency (conclusion)” value in assay [1] is recorded as “improvement in feed efficiency”. Further, in assay [2] (setting [4]), the “feed efficiency compared with the positive control (conclusion)” value was “significantly improved (p<0.05) over the positive control” and the “weight gain compared with the positive control (conclusion)” value is given as “significantly improved (p<0.05) over the positive control”. Also, in assay [2] (setting [5]), the “feed efficiency compared with the negative control (conclusion)” value was “significant difference between this treatment and the negative control”; the “feed efficiency compared with the positive control (conclusion)” value is listed as “no difference from the positive control”. For the same molecule, in assay [2] (dose titration study), the “effect of addition of AQ to the litter on weight gain (conclusion)” value is reported as “tends to improve weight gain numerically”. In assay [3], the “intestinal coccidia score compared with the positive and negative control (conclusion)” value was “improved significantly (p<0.05) over the positive and negative control”.
